Laboratory results published in US12011439B2, “Combination therapy using C—C chemokine receptor 4 (CCR4) antagonists and one or more immune checkpoint inhibitors” (CHEMOCENTRYX, INC., priority 2018, dated 2024).

Experiments:
[1] = biological target: T1, CCR1 (Homo sapiens, UniProt P32246); experiment: Compound 1 selectivity panel, buffer IC50; type: cell-based; conditions: Receptor CCR1
T1 sequence (P32246 1-355): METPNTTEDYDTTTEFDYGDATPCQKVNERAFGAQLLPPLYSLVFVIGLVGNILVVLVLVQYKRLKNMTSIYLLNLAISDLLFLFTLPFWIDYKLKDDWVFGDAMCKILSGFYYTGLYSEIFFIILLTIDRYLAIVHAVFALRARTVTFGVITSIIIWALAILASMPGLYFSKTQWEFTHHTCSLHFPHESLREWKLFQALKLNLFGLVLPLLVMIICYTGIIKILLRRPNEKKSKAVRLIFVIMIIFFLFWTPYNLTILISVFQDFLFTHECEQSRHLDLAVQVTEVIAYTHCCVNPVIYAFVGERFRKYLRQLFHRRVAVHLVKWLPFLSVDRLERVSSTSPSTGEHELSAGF
Experimental: (§1) The selectivity of Compound 1 was tested by determining the IC50 value against a diverse panel of receptors, enzymes, and ion channels. […] See, Table 1.

[2] = biological target: T2, CCR7 (Homo sapiens, UniProt P32248); experiment: Compound 1 selectivity panel, buffer IC50; type: cell-based; conditions: Receptor CCR7
T2 sequence (P32248 25-378): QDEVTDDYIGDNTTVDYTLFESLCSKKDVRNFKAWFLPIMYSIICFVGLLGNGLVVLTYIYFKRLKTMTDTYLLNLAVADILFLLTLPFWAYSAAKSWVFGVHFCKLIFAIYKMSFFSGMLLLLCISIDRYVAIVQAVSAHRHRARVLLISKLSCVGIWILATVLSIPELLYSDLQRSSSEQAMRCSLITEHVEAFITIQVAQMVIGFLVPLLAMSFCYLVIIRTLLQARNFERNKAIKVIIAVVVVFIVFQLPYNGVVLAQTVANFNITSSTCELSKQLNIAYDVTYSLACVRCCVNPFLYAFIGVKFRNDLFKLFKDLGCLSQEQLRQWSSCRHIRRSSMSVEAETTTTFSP
Experimental: as §1

[3] = biological target: T3, CXCR1 (Homo sapiens, UniProt P25024); experiment: Compound 1 selectivity panel, buffer IC50; type: cell-based; conditions: Receptor CXCR1
T3 sequence (P25024 1-350): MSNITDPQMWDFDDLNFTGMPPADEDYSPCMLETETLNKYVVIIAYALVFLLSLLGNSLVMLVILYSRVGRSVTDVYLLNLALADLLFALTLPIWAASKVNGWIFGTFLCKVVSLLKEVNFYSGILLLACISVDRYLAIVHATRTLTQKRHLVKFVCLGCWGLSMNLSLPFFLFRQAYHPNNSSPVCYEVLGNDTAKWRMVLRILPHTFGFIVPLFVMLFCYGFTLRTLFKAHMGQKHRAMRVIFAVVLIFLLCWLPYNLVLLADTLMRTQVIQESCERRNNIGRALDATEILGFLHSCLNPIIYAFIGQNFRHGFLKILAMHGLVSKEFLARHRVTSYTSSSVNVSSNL
Experimental: as §1

[4] = biological target: T4, CXCR3 (Homo sapiens, UniProt P49682); experiment: Compound 1 selectivity panel, buffer IC50; type: cell-based; conditions: Receptor CXCR3
T4 sequence (P49682 1-368): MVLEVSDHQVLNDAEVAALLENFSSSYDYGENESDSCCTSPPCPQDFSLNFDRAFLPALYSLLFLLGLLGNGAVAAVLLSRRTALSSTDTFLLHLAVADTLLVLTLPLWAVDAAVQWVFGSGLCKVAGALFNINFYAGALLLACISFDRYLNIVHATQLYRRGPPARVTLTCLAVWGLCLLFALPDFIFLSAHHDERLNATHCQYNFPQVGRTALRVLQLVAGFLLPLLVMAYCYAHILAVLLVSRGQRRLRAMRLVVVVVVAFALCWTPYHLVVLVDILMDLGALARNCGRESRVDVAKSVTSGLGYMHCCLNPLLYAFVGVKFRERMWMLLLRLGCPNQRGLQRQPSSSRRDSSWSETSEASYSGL
Experimental: as §1

[5] = biological target: CXCR4 (Homo sapiens, UniProt P61073); experiment: Compound 1 selectivity panel, buffer IC50; type: cell-based; conditions: Receptor CXCR4
Chain of CXCR4 (P61073 whole entry, species assumed): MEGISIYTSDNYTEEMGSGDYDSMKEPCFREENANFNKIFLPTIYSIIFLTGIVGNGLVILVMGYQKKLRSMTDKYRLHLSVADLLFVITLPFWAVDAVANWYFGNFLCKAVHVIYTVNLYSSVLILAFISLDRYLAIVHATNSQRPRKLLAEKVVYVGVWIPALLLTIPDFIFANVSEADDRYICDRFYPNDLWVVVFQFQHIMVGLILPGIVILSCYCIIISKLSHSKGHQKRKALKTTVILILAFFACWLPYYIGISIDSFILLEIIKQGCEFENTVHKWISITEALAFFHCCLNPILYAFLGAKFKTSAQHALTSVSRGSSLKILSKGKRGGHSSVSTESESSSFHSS
Experimental: as §1

[6] = biological target: CXCR6 (Homo sapiens, UniProt O00574); experiment: Compound 1 selectivity panel, buffer IC50; type: cell-based; conditions: Receptor CXCR6
Chain of CXCR6 (O00574 whole entry, species assumed): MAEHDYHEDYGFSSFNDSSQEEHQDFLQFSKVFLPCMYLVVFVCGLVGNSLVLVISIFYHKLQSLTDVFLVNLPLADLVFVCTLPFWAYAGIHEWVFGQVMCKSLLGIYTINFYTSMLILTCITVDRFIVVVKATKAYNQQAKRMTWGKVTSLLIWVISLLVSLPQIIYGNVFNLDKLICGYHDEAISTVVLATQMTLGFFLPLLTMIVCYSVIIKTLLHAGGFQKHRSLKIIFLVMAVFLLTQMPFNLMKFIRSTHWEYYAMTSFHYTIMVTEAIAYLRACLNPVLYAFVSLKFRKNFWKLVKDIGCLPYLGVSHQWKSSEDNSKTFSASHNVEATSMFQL
Experimental: as §1

[7] = biological target: CXCR7 (Homo sapiens, UniProt P25106); experiment: Compound 1 selectivity panel, buffer IC50; type: cell-based; conditions: Receptor CXCR7
Chain of CXCR7 (P25106 whole entry, species assumed): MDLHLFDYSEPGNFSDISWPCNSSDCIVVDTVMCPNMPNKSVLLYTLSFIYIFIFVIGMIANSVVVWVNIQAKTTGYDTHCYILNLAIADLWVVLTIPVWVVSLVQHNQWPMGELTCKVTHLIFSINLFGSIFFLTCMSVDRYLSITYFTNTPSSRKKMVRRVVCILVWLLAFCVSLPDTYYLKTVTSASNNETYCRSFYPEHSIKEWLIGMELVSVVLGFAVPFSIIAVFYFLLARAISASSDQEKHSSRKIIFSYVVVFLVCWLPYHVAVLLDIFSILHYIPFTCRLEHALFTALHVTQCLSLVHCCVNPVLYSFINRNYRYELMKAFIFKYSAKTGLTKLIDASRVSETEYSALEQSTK
Experimental: as §1

[8] = biological target: T5, Duffy (Homo sapiens, UniProt Q16570); experiment: Compound 1 selectivity panel, buffer IC50; type: cell-based; conditions: Receptor Duffy
T5 sequence (Q16570 1-336): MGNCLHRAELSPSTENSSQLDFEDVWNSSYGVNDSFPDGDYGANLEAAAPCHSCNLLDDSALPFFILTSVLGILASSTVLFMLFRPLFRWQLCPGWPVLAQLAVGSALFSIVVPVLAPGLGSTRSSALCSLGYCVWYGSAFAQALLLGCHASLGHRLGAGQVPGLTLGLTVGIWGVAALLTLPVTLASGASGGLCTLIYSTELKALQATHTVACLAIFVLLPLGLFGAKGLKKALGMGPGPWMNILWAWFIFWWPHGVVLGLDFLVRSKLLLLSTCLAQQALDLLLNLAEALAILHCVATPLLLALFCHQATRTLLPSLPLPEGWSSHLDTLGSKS
Experimental: as §1

[9] = biological target: T6, mCCR4 (Mus musculus, UniProt P51680); experiment: 125I-CCL17 binding, mouse CCR4 cells; conditions: Mouse mCCR4-293 cells, buffer
T6 sequence (P51680 1-360): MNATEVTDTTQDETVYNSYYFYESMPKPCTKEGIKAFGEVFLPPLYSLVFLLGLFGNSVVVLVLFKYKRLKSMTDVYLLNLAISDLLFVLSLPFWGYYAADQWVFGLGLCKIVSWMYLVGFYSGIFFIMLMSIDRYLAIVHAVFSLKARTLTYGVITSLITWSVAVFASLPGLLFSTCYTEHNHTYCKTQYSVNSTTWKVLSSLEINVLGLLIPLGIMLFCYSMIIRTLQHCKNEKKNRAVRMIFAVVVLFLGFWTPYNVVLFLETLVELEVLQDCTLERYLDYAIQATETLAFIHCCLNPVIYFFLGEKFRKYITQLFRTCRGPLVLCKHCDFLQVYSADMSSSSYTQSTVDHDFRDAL

IC50 [1]: > 10 µM
IC50 [2]: > 10 µM
IC50 [3]: > 10 µM
IC50 [4]: > 10 µM
IC50 [5]: > 10 µM
IC50 [6]: > 10 µM
IC50 [7]: > 10 µM
IC50 [8]: > 10 µM
IC50 [9]: 0.027 µM
SMILES: C[C@@H](Nc1cc(C2CCN([C@H]3CCCN(CCC(=O)O)C3)CC2)ccc1Cl)c1ccc(Cl)cc1Cl [Compound 1]
